Assay in all cases: relative viability (nuclei count vs DMSO), 5 days (fraction); higher = more cells survive
Compound in the assay “CX-5461 + Pictilisib”: Cc1cnc(CNC(=O)c2c(=O)c3ccc(N4CCCN(C)CC4)nc3n3c2sc2ccccc23)cn1 [CX-5461] + CS(=O)(=O)N1CCN(Cc2cc3nc(-c4cccc5[nH]ncc45)nc(N4CCOCC4)c3s2)CC1 [Pictilisib] (partner 1 µM)
In a few lines:
(§1)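 Relative viability was taken as the ratio of nuclei in treated wells to nuclei in vehicle wells. Lung cancer cell lines in 1536-well plates received compounds by pin tool one day after seeding, either one drug alone or a fixed anchor-drug dose plus five library-drug doses (not always all listed) in √10 steps. Nuclei were counted on 4× images after 5 days of treatment, and values are medians of duplicate plates.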

Compound in the assay “IMD-0354 + Foretinib”: O=C(Nc1cc(C(F)(F)F)cc(C(F)(F)F)c1)c1cc(Cl)ccc1O [IMD-0354] + COc1cc2c(Oc3ccc(NC(=O)C4(C(=O)Nc5ccc(F)cc5)CC4)cc3F)ccnc2cc1OCCCN1CCOCC1 [Foretinib] (partner 0.25 µM)
An outline of the steps:
as §1

Compound in the assay “IMD-0354 + Lapatinib”: O=C(Nc1cc(C(F)(F)F)cc(C(F)(F)F)c1)c1cc(Cl)ccc1O [IMD-0354] + CS(=O)(=O)CCNCc1ccc(-c2ccc3ncnc(Nc4ccc(OCc5cccc(F)c5)c(Cl)c4)c3c2)o1 [Lapatinib] (partner 2 µM)
In a few lines:
as §1

Compound in the assay “IMD-0354 + Vorinostat”: O=C(Nc1cc(C(F)(F)F)cc(C(F)(F)F)c1)c1cc(Cl)ccc1O [IMD-0354] + O=C(CCCCCCC(=O)Nc1ccccc1)NO [Vorinostat] (partner 1 µM)
An outline of the steps:
as §1

On to UMC-11, for which the relative viability with CX-5461 + Pictilisib (first compound 0.01 µM) came to 0.869; in the assay with CX-5461 + Pictilisib (first compound 0.03162 µM), 0.835; in the assay with CX-5461 + Pictilisib (first compound 0.1 µM), 0.76; with CX-5461 + Pictilisib (first compound 0.3162 µM), 0.149; with CX-5461 + Pictilisib (first compound 1 µM), 0.259; with IMD-0354 + Foretinib (first compound 0.04 µM), 1.07. In addition, the relative viability with IMD-0354 + Foretinib (first compound 0.1265 µM) is 1.03; in the assay with IMD-0354 + Foretinib (first compound 0.4 µM), 0.431; with IMD-0354 + Foretinib (first compound 1.265 µM), 0.235; with IMD-0354 + Foretinib (first compound 4 µM), 0.235; in the assay with IMD-0354 + Lapatinib (first compound 0.04 µM), 1.07; in the assay with IMD-0354 + Lapatinib (first compound 0.1265 µM), 0.939. In addition, the relative viability with IMD-0354 + Lapatinib (first compound 0.4 µM) was 0.622; in the assay with IMD-0354 + Lapatinib (first compound 1.265 µM), 0.239; with IMD-0354 + Lapatinib (first compound 4 µM), 0.232; in the assay with IMD-0354 + Vorinostat (first compound 0.04 µM), 0.39; with IMD-0354 + Vorinostat (first compound 0.1265 µM), 0.407; with IMD-0354 + Vorinostat (first compound 0.4 µM), 0.278. Also, the relative viability is 0.189 with IMD-0354 + Vorinostat (first compound 1.265 µM) and 0.239 with IMD-0354 + Vorinostat (first compound 4 µM).

The values above are taken from the supplement of paper PMC10307832.
